Results on one molecule are retold here after patent US20110207726A1, “Inhibitors of Human Cathepsin L, Cathepsin B, and Cathepsin S” (The Trustees of the University of Pennsylvania, priority 2008, published 2011).

Data set [1] deals with T1, Human liver cathepsin B (Homo sapiens, UniProt P07858).
T1 construct: Human liver cathepsin B (Calbiochem 219362, 65 ng/mL); purchased Calbiochem 219362; host or cells: human liver
As to the kind of experiment: Cathepsin B assay, IC50 determination. Type of data set: biochemical. The procedure, abridged: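 Spleen cathepsin S (40 ng/mL) with 15 microM Z-Phe-Arg-AMC and liver cathepsin B (65 ng/mL) with 15 microM Z-Arg-Arg-AMC, in 20 mM sodium acetate, 1 mM EDTA, 5 mM cysteine, pH 5.5. AMC fluorescence release monitored; IC50 measured in triplicate.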

A short description of data set [2]: Stability in DMSO and cathepsin L assay buffer. Type of data set: physicochemical. The source says: Some variability in IC50 values determined for Compound (iii) prompted us to explore the stability of both Compound No. 1 and Compound (iii) in solvents relevant to the bioassay.
Data set [3] deals with Plasmodium falciparum. As to the kind of experiment: Malaria assay, in vitro propagation. Type of data set: cell-based. The note with it: read-out: IC50 against Plasmodium falciparum. The protocol:
Eight two-fold serial dilutions of Compound No. 1 in RPMI 1640 media (Invitrogen 1 1 875) containing L-Glutamine, 50 mg/L hypoxanthine, 6 g/L HEPES, 0.5% Albumax 11 bovine serum (Invitrogen 11021), 0.225% sodium bicarbonate, and 1 pgIrnL gentamicin were performed in Corning 3704 microplates. […] In addition, 30 μL normal red blood cells and 30 μL infected red blood cells were added to two control columns containing 10 μL media. The plates were incubated at 37° C. in a 92% humidity chamber with 5% CO2, 5% O2, and 90% N2 for 48 hours to allow for two cycles of red blood cell rupture and invasion to take place. Forty μL BrightGlo™ (Promega E2610) were added to each well and centrifuged. After 5 minutes, luminescence was measured using the Envision microplate reader.

Data set [4] relates to zebrafish. The data set can be described thus: Zebrafish live organism toxicity assay. The settings on record: at 100 μM.
The target of data set [5] is T2, human cathepsin L (Homo sapiens, UniProt P07711). As to the kind of experiment: Nonlinear regression of transient kinetics (data fitting).
T2 sequence (P07711 114-288 limits assumed): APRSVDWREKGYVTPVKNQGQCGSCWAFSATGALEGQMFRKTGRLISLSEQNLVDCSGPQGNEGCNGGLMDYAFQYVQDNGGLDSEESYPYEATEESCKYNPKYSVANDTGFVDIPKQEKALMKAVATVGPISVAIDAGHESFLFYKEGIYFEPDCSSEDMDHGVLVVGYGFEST
T2 sequence (P07711 292-333 limits assumed): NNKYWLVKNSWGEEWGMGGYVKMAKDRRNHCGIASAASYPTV
Data set [6] addresses T2, human cathepsin L. The data set can be described thus: Preincubation studies, cathepsin L. Type of data set: biochemical. The arrangement: 8.7 ng/mL human liver cathepsin L (Calbiochem 219402); purchased Calbiochem 219402; host or cells: human liver. The method, then: To establish the time-dependent mechanism of inhibition, enzyme and inhibitor were preincubated for various time points in a 96-well microplate prior to the addition of substrate to initiate the enzymatic reaction. 47.5 μL of cathepsin L (18.3 ng/mL) and 47.5 μL of Compound No. 1 at various concentrations in assay buffer were incubated up to 4 hours. Five μL of Z-Phe-Arg-AMC substrate were then added and the plate was monitored for AMC hydrolysis on the Envision fluorescent microplate reader.

The target of data set [7] is T2, human cathepsin L. As to the kind of experiment: Reversibility, preincubation/dilution assay. Type of data set: biochemical. The arrangement: 8.7 ng/mL human liver cathepsin L (Calbiochem 219402); purchased Calbiochem 219402; host or cells: human liver. The method, then: This mixture was then diluted 100-fold in a Corning 3650 96-well plate with assay buffer containing 1 μM Z-Phe-Arg-AMC to a final volume of 200 μL. A rapidly reversible inhibitor should dissociate from the enzyme to restore approximately >90% of enzymatic activity. Fluorescence intensities of the 200 μL reaction wells were monitored continuously for AMC hydrolysis on the Envision plate reader.
The mechanism of inhibition, to determine whether the compound acted as a rapidly reversible, slowly reversible, or irreversible inhibitor, was evaluated using a preincubation/dilution assay (Copeland, 2005, Evaluation of Enzyme Inhibitors in Drug Discovery: A Guide for Medicinal Chemists and Pharmacologists, J. Wiley, Hoboken, N.J.). […] After 8820 s, the rate of product formation for the 4 hour preincubated reaction was 4.7 times greater than the initial rate of product formation, showing that the inhibitor was being released from the enzyme-inhibitor complex and enzymatic activity was indeed recovering.

Like-named read-outs stand apart in the source and are kept apart here.

Broadly, the IC50 is the concentration that gives 50% inhibition. By Ki is commonly meant the dissociation constant of the complex between target and ligand, obtained from inhibition or displacement. A low value points to higher affinity. Usually koff stands for the rate constant with which the complex falls apart. A low value points to a long-lived complex. A word on the kon: it is the rate constant with which the complex forms. Lower therefore signals slow association. As to `CCc1ccccc1NC(=O)CSC(=O)NNC(=O)[C@H](Cc1c[nH]c2ccccc12)NC(=O)OC(C)(C)C` [Compound No. 1], the “Selectivity Index @ 10 min” value in data set [1] (Cathepsin B vs cathepsin L, 10 min) was found to be 48. Moreover, in data set [1] (Cathepsin B vs cathepsin L, 30 min), the “Selectivity Index @ 30 min” value worked out at 40. Further, the “Selectivity Index @ 60 min” value in data set [1] (Cathepsin B vs cathepsin L, 60 min) is listed as 45. Moreover, the “Selectivity Index @ 90 min” value in data set [1] (Cathepsin B vs cathepsin L, 90 min) turned out to be 50. Also, the “Selectivity Index” value in data set [1] (Cathepsin B vs cathepsin L, over 10-90 min) is 40-50. Also, the IC50 in data set [1] (Cathepsin B, no preincubation, 30 min, read-out: IC50 @ 30 min) came out at 2980 ± 295 nM; in data set [1] (Cathepsin B, no preincubation, 60 min, read-out: IC50 @ 60 min), 2530 ± 73 nM; in data set [1] (Cathepsin B, no preincubation, 90 min, read-out: IC50 @ 90 min), 2510 ± 139 nM; in data set [1] (IC50 @ 10 min, Cathepsin B, human liver, no preincubation, 10 min), 7490 ± 693 nM; in data set [1] (Table 1, read-out: IC50 Cat B), 4450 nM; in data set [3], 15400 ± 600 nM. The IC50 came to 7.5 ± 1 nM in data set [6] (IC50 against human cathepsin L after 1 hour preincubation, preincubation with enzyme 1 h prior to substrate addition); 4.2 ± 0.6 nM in data set [6] (IC50 against human cathepsin L after 2 hours preincubation, preincubation with enzyme 2 h); 1 ± 0.5 nM in data set [6] (preincubation with enzyme 4 h, read-out: IC50 against human cathepsin L after 4 hours preincubation). Besides, the “stability in DMSO” value in data set [2] (DMSO, room temperature) is reported as “completely stable”. For the same molecule, the “stability in cathepsin L assay buffer” value in data set [2] (NaOAc (20 mM), pH 5.5, EDTA (1 mM), cysteine (5 mM)) is listed as “completely stable”. For the same molecule, in data set [4], the toxicity to zebrafish result is listed as “lack of toxicity”. The Ki in data set [5] amounted to 0.89 nM. The molecule also displayed a koff in data set [5] of 2.2e-05 s⁻¹. In addition, in data set [5], the kon amounted to 24000 M⁻¹ s⁻¹. Also, the “enzymatic activity returned after 100-fold dilution” value in data set [7] (1 hour preincubation at 75 nM, 6000 s into the reaction) was “approximately 11%”. In data set [7] (4 hour preincubated reaction, after 8820 s), the “rate of product formation relative to initial rate” value amounted to 4.7 times. The “reaction inhibited immediately after addition of substrate” value in data set [7] (4 hr preincubated enzyme-inhibitor) is reported as 99.8%. In addition, the “mechanism of inhibition (reversibility)” value in data set [7] (preincubation/dilution assay) is on record as “very slowly reversible inhibitor”.
